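Values below derive from 48-hour exposures of cells grown in 96-well plates, with endpoints linearly interpolated between the two concentrations bracketing the appropriate inhibition level. Here, GI50 denotes the concentration required for 50% inhibition of growth.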 Calls of active or inactive are those of the source. No stated cut-off is given here; in the data, active = GI50 up to about 1.1 µM and inactive = higher.
What was measured:
Assay in all cases: NCI anticancer screen, dose series, 48 h
786-0 = test system: 786-0
A498 = test system: A498
A549 = test system: A549
ACHN = test system: ACHN
BT-549 = test system: BT-549
CAKI-1 = test system: CAKI-1
CCRF-CEM = test system: CCRF-CEM
COLO 205 = test system: COLO 205
DU-145 = test system: DU-145
EKVX = test system: EKVX
HCC 2998 = test system: HCC 2998
HCT-116 = test system: HCT-116
HCT-15 = test system: HCT-15
HL-60 = test system: HL-60
HOP-62 = test system: HOP-62
HOP-92 = test system: HOP-92
HT-29 = test system: HT-29
Hs-578T = test system: Hs-578T
IGROV-1 = test system: IGROV-1
K562 = test system: K562
KM12 = test system: KM12
LOX IMVI = test system: LOX IMVI
M14 = test system: M14
MCF7 = test system: MCF7
MDA-MB-231 = test system: MDA-MB-231
MDA-MB-435 = test system: MDA-MB-435
MDA-N = test system: MDA-N
MOLT-4 = test system: MOLT-4
Malme-3M = test system: Malme-3M
NCI-H226 = test system: NCI-H226
NCI-H23 = test system: NCI-H23
NCI-H460 = test system: NCI-H460
NCI-H522 = test system: NCI-H522
NCI/ADR-RES = test system: NCI/ADR-RES
OVCAR-3 = test system: OVCAR-3
OVCAR-5 = test system: OVCAR-5
OVCAR-8 = test system: OVCAR-8
PC-3 = test system: PC-3
RPMI-8226 = test system: RPMI-8226
SF-268 = test system: SF-268
SF-295 = test system: SF-295
SF-539 = test system: SF-539
SK-MEL-28 = test system: SK-MEL-28
SK-MEL-5 = test system: SK-MEL-5
SK-OV-3 = test system: SK-OV-3
SN12C = test system: SN12C
SNB-19 = test system: SNB-19
SNB-75 = test system: SNB-75
SR = test system: SR
SW-620 = test system: SW-620
T47D = test system: T47D
TK-10 = test system: TK-10
U-251 = test system: U-251
UACC-257 = test system: UACC-257
UACC-62 = test system: UACC-62
UO-31 = test system: UO-31
OVCAR-4 = test system: OVCAR-4
RXF 393 = test system: RXF 393
SK-MEL-2 = test system: SK-MEL-2

C=CC1ON(Cc2ccccc2)CCc2cc(OC)c(OC)cc21 (stereo unspecified)
GI50 (786-0): > 100 µM (inactive)
GI50 (A498): 15.2 µM (inactive)
GI50 (A549): 44.2 µM (inactive)
GI50 (ACHN): > 100 µM (inactive)
GI50 (BT-549): 28.1 µM (inactive)
GI50 (CAKI-1): 70.5 µM (inactive)
GI50 (CCRF-CEM): 45.7 µM (inactive)
GI50 (COLO 205): 41.6 µM (inactive)
GI50 (DU-145): > 100 µM (inactive)
GI50 (EKVX): 63.4 µM (inactive)
GI50 (HCC 2998): 35.5 µM (inactive)
GI50 (HCT-116): 45.2 µM (inactive)
GI50 (HCT-15): 48.2 µM
GI50 (HL-60): 26.1 µM (inactive)
GI50 (HOP-62): 85.5 µM (inactive)
GI50 (HOP-92): 46.5 µM (inactive)
GI50 (HT-29): 42.4 µM (inactive)
GI50 (Hs-578T): > 100 µM (inactive)
GI50 (IGROV-1): 78 µM (inactive)
GI50 (K562): 42 µM (inactive)
GI50 (KM12): 27 µM (inactive)
GI50 (LOX IMVI): 43.3 µM (inactive)
GI50 (M14): 49.7 µM (inactive)
GI50 (MCF7): > 100 µM (inactive)
GI50 (MDA-MB-231): 81.1 µM (inactive)
GI50 (MDA-MB-435): 24.5 µM (inactive)
GI50 (MDA-N): 29 µM (inactive)
GI50 (MOLT-4): 34.7 µM (inactive)
GI50 (Malme-3M): 19.2 µM (inactive)
GI50 (NCI-H226): > 100 µM (inactive)
GI50 (NCI-H23): 53.3 µM (inactive)
GI50 (NCI-H460): 57 µM (inactive)
GI50 (NCI-H522): 41.5 µM (inactive)
GI50 (NCI/ADR-RES): 45.5 µM (inactive)
GI50 (OVCAR-3): 35.4 µM (inactive)
GI50 (OVCAR-5): > 100 µM (inactive)
GI50 (OVCAR-8): > 100 µM (inactive)
GI50 (PC-3): 48.9 µM (inactive)
GI50 (RPMI-8226): 30.3 µM (inactive)
GI50 (SF-268): 46.6 µM (inactive)
GI50 (SF-295): 31.7 µM (inactive)
GI50 (SF-539): 83.4 µM (inactive)
GI50 (SK-MEL-28): 36.9 µM (inactive)
GI50 (SK-MEL-5): 16.1 µM (inactive)
GI50 (SK-OV-3): 56.5 µM (inactive)
GI50 (SN12C): 77.4 µM (inactive)
GI50 (SNB-19): > 100 µM (inactive)
GI50 (SNB-75): 72.4 µM (inactive)
GI50 (SR): 25.7 µM (inactive)
GI50 (SW-620): 44.9 µM (inactive)
GI50 (T47D): 27.7 µM (inactive)
GI50 (TK-10): > 100 µM (inactive)
GI50 (U-251): 66.5 µM (inactive)
GI50 (UACC-257): 52.6 µM (inactive)
GI50 (UACC-62): 56.1 µM (inactive)
GI50 (UO-31): 25.5 µM (inactive)

O=c1c(-c2ccc(Cl)cc2)nnc2n(Cc3ccccc3)c3ccccc3n12
GI50 (786-0): 14.9 µM (inactive)
GI50 (A498): 23 µM (inactive)
GI50 (A549): 25.5 µM (inactive)
GI50 (ACHN): 21.7 µM (inactive)
GI50 (BT-549): 22 µM (inactive)
GI50 (CAKI-1): 16.4 µM (inactive)
GI50 (CCRF-CEM): > 100 µM (inactive)
GI50 (COLO 205): > 100 µM (inactive)
GI50 (DU-145): > 100 µM (inactive)
GI50 (EKVX): 38.4 µM (inactive)
GI50 (HCC 2998): > 100 µM (inactive)
GI50 (HCT-116): 50.5 µM (inactive)
GI50 (HCT-15): > 100 µM
GI50 (HL-60): 50 µM (inactive)
GI50 (HOP-62): 23.6 µM (inactive)
GI50 (HOP-92): 14.7 µM (inactive)
GI50 (HT-29): 52.6 µM (inactive)
GI50 (Hs-578T): 24 µM (inactive)
GI50 (IGROV-1): 18.7 µM (inactive)
GI50 (KM12): 28.9 µM (inactive)
GI50 (LOX IMVI): 82.6 µM (inactive)
GI50 (M14): 43.4 µM (inactive)
GI50 (MCF7): 60.7 µM (inactive)
GI50 (MDA-MB-231): 20 µM (inactive)
GI50 (MDA-MB-435): 4.28 µM (inactive)
GI50 (MDA-N): > 100 µM (inactive)
GI50 (MOLT-4): 66.7 µM (inactive)
GI50 (Malme-3M): 39.8 µM (inactive)
GI50 (NCI-H226): 23.7 µM (inactive)
GI50 (NCI-H23): 37 µM (inactive)
GI50 (NCI-H460): 33.3 µM (inactive)
GI50 (NCI-H522): 16.8 µM (inactive)
GI50 (NCI/ADR-RES): 52.7 µM (inactive)
GI50 (OVCAR-4): 5.94 µM (inactive)
GI50 (OVCAR-5): 48.9 µM (inactive)
GI50 (OVCAR-8): 45.3 µM (inactive)
GI50 (PC-3): 30.1 µM (inactive)
GI50 (RXF 393): 13.2 µM (inactive)
GI50 (SF-268): 23.3 µM (inactive)
GI50 (SF-295): 19.1 µM (inactive)
GI50 (SF-539): 13.6 µM (inactive)
GI50 (SK-MEL-28): 51.6 µM (inactive)
GI50 (SK-MEL-2): 44.2 µM (inactive)
GI50 (SK-MEL-5): 41.1 µM (inactive)
GI50 (SN12C): 82.2 µM (inactive)
GI50 (SNB-19): 17.7 µM (inactive)
GI50 (SNB-75): 13 µM (inactive)
GI50 (SR): > 100 µM (inactive)
GI50 (SW-620): > 100 µM (inactive)
GI50 (T47D): 67.9 µM (inactive)
GI50 (TK-10): 20.6 µM (inactive)
GI50 (U-251): 23.7 µM (inactive)
GI50 (UACC-257): 51.3 µM (inactive)
GI50 (UO-31): 44.4 µM (inactive)

COC(=O)c1ccc(Nc2nc3[nH]cnc3c(=O)[nH]2)cc1
GI50 (786-0): > 100 µM (inactive)
GI50 (A498): > 100 µM (inactive)
GI50 (A549): > 100 µM (inactive)
GI50 (ACHN): > 100 µM (inactive)
GI50 (BT-549): > 100 µM (inactive)
GI50 (CAKI-1): > 100 µM (inactive)
GI50 (CCRF-CEM): > 100 µM (inactive)
GI50 (COLO 205): > 100 µM (inactive)
GI50 (DU-145): > 100 µM (inactive)
GI50 (EKVX): > 100 µM (inactive)
GI50 (HCC 2998): > 100 µM (inactive)
GI50 (HCT-116): > 100 µM (inactive)
GI50 (HCT-15): > 100 µM
GI50 (HL-60): > 100 µM (inactive)
GI50 (HOP-62): > 100 µM (inactive)
GI50 (HOP-92): > 100 µM (inactive)
GI50 (HT-29): 58.7 µM (inactive)
GI50 (Hs-578T): > 100 µM (inactive)
GI50 (IGROV-1): > 100 µM (inactive)
GI50 (KM12): > 100 µM (inactive)
GI50 (LOX IMVI): 95.5 µM (inactive)
GI50 (M14): 59.2 µM (inactive)
GI50 (MCF7): > 100 µM (inactive)
GI50 (MDA-MB-231): > 100 µM (inactive)
GI50 (MDA-MB-435): 51.9 µM (inactive)
GI50 (MDA-N): 32.9 µM (inactive)
GI50 (MOLT-4): 87.1 µM (inactive)
GI50 (Malme-3M): > 100 µM (inactive)
GI50 (NCI-H226): > 100 µM (inactive)
GI50 (NCI-H23): > 100 µM (inactive)
GI50 (NCI-H460): > 100 µM (inactive)
GI50 (NCI-H522): > 100 µM (inactive)
GI50 (NCI/ADR-RES): > 100 µM (inactive)
GI50 (OVCAR-3): 54.6 µM (inactive)
GI50 (OVCAR-4): > 100 µM (inactive)
GI50 (OVCAR-5): > 100 µM (inactive)
GI50 (OVCAR-8): > 100 µM (inactive)
GI50 (PC-3): > 100 µM (inactive)
GI50 (RPMI-8226): 47.5 µM (inactive)
GI50 (SF-268): 94 µM (inactive)
GI50 (SF-295): > 100 µM (inactive)
GI50 (SF-539): 67.3 µM (inactive)
GI50 (SK-MEL-28): > 100 µM (inactive)
GI50 (SK-MEL-2): > 100 µM (inactive)
GI50 (SK-MEL-5): > 100 µM (inactive)
GI50 (SK-OV-3): 89.3 µM (inactive)
GI50 (SN12C): > 100 µM (inactive)
GI50 (SNB-19): > 100 µM (inactive)
GI50 (SNB-75): > 100 µM (inactive)
GI50 (SR): 65.9 µM (inactive)
GI50 (SW-620): > 100 µM (inactive)
GI50 (T47D): 69 µM (inactive)
GI50 (TK-10): > 100 µM (inactive)
GI50 (U-251): > 100 µM (inactive)
GI50 (UACC-257): > 100 µM (inactive)
GI50 (UACC-62): > 100 µM (inactive)
